Source: patent US20240051976A1, “A Tracer Compound and a Preparation Method Thereof” (Turun Yliopisto, priority 2020, published 2024)

Columns and labels:
B16/F10 melanoma cells = assay: Nonspecific B16/F10 melanoma cell-uptake (free, membrane-bound, internalized fractions); format: cell-based, mouse; settings: for radioactivity in the free fraction outside the cells: n=3
Method: Rat pancreatic tumor cell line AR42J that expresses SSTR was obtained from American Type Culture Collection (Manassas, VA). C4-2 cells (ATCC® CRL-3314™) were cultured in DMEM medium (Gibco) supplemented with 18% F12 medium (Sigma), 10% FBS (Gibco) and 1% T-medium. Both cell lines were grown in at 37° C. in a humidified incubator containing 5% C02. Cells grown to 80%-90% confluence were used for either in vitro or in vivo experiments. Mouse skin melanoma B16/F10 cells were cultured in CO2 Independent Medium (Life Technologies Gibco, cat. #18045054) supplemented with GlutaMax (1× final concentration, 10% FBS and Pen-Strep at 37° C. in a humidified incubator. The B16/F10 cell viability was 97%. The C4-2 cells (ATCC® CRL-3314™) were cultured in DMEM medium (Gibco) supplemented with 18% F12 medium (Sigma), 10% FBS (Gibco) and 1% T-medium. Both cell lines were grown in at 37° C. in a humidified incubator containing 5% C02. Cells grown to 80%-90% confluence were used for either in vitro or in vivo experiments.
500 000 cells/well were seeded overnight on 6-well plates. The growth media was removed and the reaction media containing the radiotracer [^18F]4 was added. […] The membrane-bound fraction was collected by adding cold glycine buffer (1 mL) on the cells, incubating for 5 minutes on an ice bath, removing the supernatant, repeating the procedure, and washing the cells with cold 1×PBS, and collecting all the supernatants to the same microtube. For determining the internalized fraction, 1 M NaOH was added on the cells and left to incubate in ambient temperature for 10 minutes. The supernatant was removed and the cells were washed twice with cold 1×PBS, and the supernatants were collected into the same microtube. The supernatants collected separately in each phase, were measure with a gamma counter for determining the radioactivity-ratio (%) of each fraction. […] The radioactivity distribution between the aforementioned fractions is depicted in FIG. 9.

[1] = PET/CT, biodistribution and elimination in control SCID mice; format: in vivo, mouse; settings: intravenous
Method: [^18F]AmBF3-Tz ([^18F]4) was formulated in 10% ethanol in 0.01 M PBS and administered intravenously to SCID mice. The PET/CT image was acquired with Inveon PET/CT and Molecubes PET and CT.
[^18F]AmBF3-Tz ([^18F]4) was formulated in 10% ethanol in 0.01 M PBS and administered intravenously to SCID mice. The standardized uptake values (SUVs) presenting the elimination profile (FIGS. 13a and 13b) were determined from the PET image by drawing regions-of-interest (ROI) around selected organs (heart, liver, kidney, lung, muscle, urinary bladder) and by measuring the ratio of radioactivity per unit volume of that ROI and normalized to the injected dose.

Question: Which results are given for `C[N+](C)(CCNC(=O)Cc1ccc(-c2nncnn2)cc1)C[B-](F)(F)F` [[^18F]4, {[(2-{2-[4-(1,2,4,5-tetrazin-3-yl)phenyl]acetamido}ethyl)dimethylammonio]methyl}trifluoroborate]?
Answer: radioactivity in the free fraction outside the cells (B16/F10 melanoma cells; B16/F10 cells, 15 min): 99.3±0.09%; radioactivity in the free fraction outside the cells (B16/F10 melanoma cells; B16/F10 cells, 240 min): 99.3±0.08%; % of total radioactivity in the free fraction (B16/F10 melanoma cells; B16/F10 cells, at each time point (FIG. 9)): Over 99%; nonspecific uptake in B16/F10 cells (B16/F10 melanoma cells; throughout the study): did not demonstrate nonspecific uptake; main elimination route [1]: through kidneys; in vivo stability (bone uptake) ([1]; PET/CT and biodistribution): excellent stability
